Here are results for 101 molecules from the RepoRT retention time repository (doi:10.1016/j.jhazmat.2019.121712).

Each structure is given as a SMILES string.

The nature of this series: Thermo Scientific Acclaim RSLC 120 C18, 100 × 2.1 mm, 2.2 µm, 30 °C; A: 90% water + 10% methanol + 0.01% formic acid + 5 mM ammonium formate; B: methanol + 0.01% formic acid + 5 mM ammonium formate; gradient (min/%B) 0.1/1 3/39 14/99.9 16/99.9. As to conditions: stereoisomer not certain.
Turning to `O=S(=O)(O)NC1CCCCC1`, the LC retention time worked out at 6.99 min. As to `CC(=O)c1ccc2c(c1)N(CC(C)N(C)C)c1ccccc1S2` (stereo unspecified), the LC retention time stood at 7.26 min. Take `COc1ccc(Cc2cnc(N)nc2N)cc1OC`: the LC retention time turned out to be 3.88 min. With `O=C1NC(=O)C2CC=CCC12` (stereo unspecified) the figure was 4.37 min; with `CCN(CC)CC#CCOC(=O)C(O)(c1ccccc1)C1CCCCC1` (stereo unspecified), 8.92 min; with `CCN(Cc1ccncc1)C(=O)C(CO)c1ccccc1` (stereo unspecified), 6.03 min. On to `CCCCCn1c(O)c(C(=O)c2cccc3ccccc23)c2ccccc21`, for which the LC retention time is 14 min. Turning to `CCCCCn1nc(C(=O)NC(C)(C)c2ccccc2)c2ccccc21`, the LC retention time is 12.5 min. With `CCS(=O)(=O)CCSP(=O)(OC)OC`, the LC retention time was found to be 4.15 min. Regarding `COc1ccc2c(c1OC)C(=O)OC2C1c2c(cc3c(c2OC)OCO3)CCN1C` (stereo unspecified), the LC retention time is 6.96 min. As for `COC1(C)CC(c2ccccc2)c2c(c3ccccc3oc2=O)O1` (stereo unspecified), the LC retention time is 11.1 min. For the molecule `CCN(CC)CCOC(=O)C(c1ccccc1)C1CCCCC1` (stereo unspecified), the LC retention time turned out to be 9.19 min. Consider `Cn1c(=O)c2c(ncn2CCO)n(C)c1=O`, for which the LC retention time was 4.09 min.

Take `COP(=O)(OC)Oc1ccc(SC)c(C)c1`: the LC retention time is 8.82 min.

In the case of `CCCCn1cc(C(=O)c2cccc3ccccc23)c2cccc(O)c21`, the LC retention time stood at 11.2 min.

As to `CCC1C(=O)OCC1Cc1cncn1C` (stereo unspecified), the LC retention time worked out at 2.74 min. Take `CCNc1nc(NCC)nc(SC)n1`: the LC retention time was 8.14 min. `CC(C)(C)NCC(O)c1cc(O)cc(O)c1` (stereo unspecified): the LC retention time was determined as 3.11 min. Turning to `CN(C)CCCN1c2ccccc2CCc2ccccc21`, the LC retention time worked out at 8.08 min. With `CCC(C)C1OC2(C=CC1C)CC1CC(CC=C(C)C(OC3CC(OC)C(OC4CC(OC)C(NC)C(C)O4)C(C)O3)C(C)C=CC=C3COC4C(O)C(C)=CC(C(=O)O1)C34O)O2` (stereo unspecified), the LC retention time is 12.4 min. Turning to `CCNCC(=O)Nc1c(C)cccc1C`, the LC retention time was 4.33 min.

Consider `CCCC1C(=O)N2C(N(C)C)=Nc3ccc(C)cc3N2C1=O` (stereo unspecified), for which the LC retention time came to 6.54 min. Next, `Cc1nnc(SCC2=C(C(=O)O)N3C(=O)C(NC(=O)Cn4cnnn4)C3SC2)s1` (stereo unspecified): 4.16 min; `CCNC(C)Cc1ccc2c(c1)OCO2` (stereo unspecified): 4.39 min. For the molecule `COC(=O)c1sccc1S(=O)(=O)NC(=O)Nc1nc(C)nc(OC)n1`, the LC retention time is 6.24 min. With `CC(=O)Oc1cc(C(C)C)c(OCCN(C)C)cc1C`, the LC retention time amounted to 6.21 min. As to `CCN(CC)CCOC(=O)c1ccc(N)cc1`, the LC retention time came to 3.21 min. Regarding `COCCOc1ccccc1S(=O)(=O)NC(=O)Nc1nc(OC)nc(OC)n1`, the LC retention time came out at 6.36 min. Take `CCCSP(=O)(OCC)SCCC`: the LC retention time was 10.2 min. For the molecule `CNC(C)C(O)c1ccccc1` (stereo unspecified), the LC retention time was 3.76 min. With `CC=CC(=O)N(CC)C(CC)C(=O)N(C)C` (stereo unspecified) the figure was 6.13 min; with `CN1CCC23c4c5ccc(O)c4OC2C(O)C=CC3C1C5` (stereo unspecified), 2.54 min.

`CCOC(=O)CC(SP(=O)(OC)OC)C(=O)OCC` (stereo unspecified): the LC retention time was 7.01 min. With `Cc1cc(C(C)(C)C)cc(C)c1CC1=NCCN1` the figure was 7.75 min; with `CN(C)CCOC(C)(c1ccccc1)c1ccccn1` (stereo unspecified), 5.18 min.

On to `CN1CCCCC1Cn1cc(C(=O)c2cccc3ccccc23)c2ccccc21` (stereo unspecified), for which the LC retention time was determined as 8.09 min.

As for `NC(=O)c1cccnc1`, the LC retention time stood at 2.73 min. As to `CC(CC(C#N)(c1ccccc1)C(C)C)N(C)C` (stereo unspecified), the LC retention time came to 5.96 min. In the case of `NN1CC(=O)N2C(Cc3c([nH]c4ccccc34)C2c2ccc3c(c2)OCO3)C1=O` (stereo unspecified), the LC retention time worked out at 7.84 min. `CNCC(C)CN1c2ccccc2Sc2ccc(OC)cc21` (stereo unspecified): the LC retention time worked out at 8.33 min. With `CCCCCCCCCCOc1cc2c(=O)c(C(=O)OCC)c[nH]c2cc1OCC`, the LC retention time came to 13.4 min.

For `CC1(C)OC2COC3(COS(N)(=O)=O)OC(C)(C)OC3C2O1` (stereo unspecified), the LC retention time was 6.08 min. With `CC(C)N(CCc1c[nH]c2ccccc12)C(C)C`, the LC retention time is 4.87 min. Consider `CCCCOc1cc(C(=O)NCCN(CC)CC)c2ccccc2n1`, for which the LC retention time came out at 8.41 min. With `COc1cc(NS(=O)(=O)c2ccc(N)cc2)nc(OC)n1` the figure was 5.6 min; with `CCCc1nn(C)c2c(=O)[nH]c(-c3cc(C(=O)CN4CC(C)NC(C)C4)ccc3OCC)nc12` (stereo unspecified), 7.5 min. With `O=C(O)c1cc(N=Nc2ccc(S(=O)(=O)Nc3ccccn3)cc2)ccc1O` the figure was 6.61 min; with `CC(=O)CC(c1ccccc1)c1c(O)c2ccccc2oc1=O` (stereo unspecified), 9.08 min; with `CCCNC(C)C(=O)Nc1ccccc1C` (stereo unspecified), 4.69 min. Next, `CCOP(=S)(OCC)N1C(=O)c2ccccc2C1=O`: 10.2 min; `CNCC(O)c1ccc(O)cc1` (stereo unspecified): 1.6 min; `CCCCC(CC)COC(=O)C(C#N)=C(c1ccccc1)c1ccccc1` (stereo unspecified): 13.4 min. Take `CN1C2CCC1CC(OC(=O)C(CO)c1ccccc1)C2` (stereo unspecified): the LC retention time was determined as 4.36 min. Consider `C=CCN(CC=C)CCc1c[nH]c2ccc(OC)cc12`, for which the LC retention time is 4.89 min. Take `CCc1cnc(C2=NC(C)(C(C)C)C(=O)N2)c(C(=O)O)c1` (stereo unspecified): the LC retention time is 5.6 min. For `COc1ccc(C(=O)c2cn(CCCCC(=O)O)c3ccccc23)cc1`, the LC retention time came to 8.81 min.

For `Oc1ccc2ccccc2c1N=Nc1ccccc1`, the LC retention time amounted to 13.6 min. With `COc1cccc(C2(O)CCCCC2CN(C)C)c1` (stereo unspecified) the figure was 4.88 min; with `CCC(C)(CC)c1cc(NC(=O)c2c(OC)cccc2OC)on1`, 9.42 min; with `Nc1ccc2c(c1)C(c1ccccc1)=NCC(=O)N2`, 4.78 min. With `NNC(=O)c1ccncc1` the figure was 2.18 min; with `CCCCCCCCCc1ccc(OCCOCCO)cc1`, 13.8 min. With `c1ccc(C2CN3CCSC3=N2)cc1` (stereo unspecified), the LC retention time is 3.68 min.

For `CC(C)(C)N1CCC(c2ccccc2)(c2ccccc2)CC1`, the LC retention time stood at 6.72 min. In the case of `COP(=S)(OC)Oc1ccc(SC)c(C)c1`, the LC retention time was 11 min. For `NC(CO)C(=O)NNCc1ccc(O)c(O)c1O` (stereo unspecified), the LC retention time stood at 1.38 min. `Cc1cccc(OCC(O)CNC(C)C)c1` (stereo unspecified): the LC retention time was determined as 5.29 min.

For the molecule `CCOP(=S)(NC(C)CC)Oc1cc(C)ccc1[N+](=O)[O-]` (stereo unspecified), the LC retention time came to 11.2 min. On to `CC(C)(C)c1ccc(C(O)CCCN2CCC(C(O)(c3ccccc3)c3ccccc3)CC2)cc1` (stereo unspecified), for which the LC retention time worked out at 9.69 min. Next, `CC12Cc3cn[nH]c3CC1CCC1C2CCC2(C)C1CCC2(C)O` (stereo unspecified): 11.3 min; `CCNCC(O)c1cccc(O)c1` (stereo unspecified): 2.66 min. For `COc1cc2c(c(OC)c1OC)-c1ccc(OC)c(=O)cc1C(NC(C)=O)CC2` (stereo unspecified), the LC retention time was 6.43 min. With `CC=CC(=O)N(CC)c1ccccc1C`, the LC retention time stood at 9.24 min. For the molecule `CNC(=O)C(C)SCCSP(=O)(OC)OC` (stereo unspecified), the LC retention time worked out at 5.02 min. With `c1ccc2c(CC3=NCCN3)cccc2c1` the figure was 4.84 min; with `CNC(=O)Oc1cccc2c1OC(C)(C)C2O` (stereo unspecified), 5.09 min; with `CC1(C)C(C(=O)c2cn(CCN3CCOCC3)c3ccccc23)C1(C)C`, 10.7 min. Turning to `CCC(CC)(CNC(=O)CCCO)c1cccc(OC)c1`, the LC retention time is 8.98 min. For `CCC1(c2ccccc2)C(=O)NCNC1=O`, the LC retention time was 5.29 min. With `Cc1ccccc1C(=O)Nc1cccc(OC(C)C)c1` the figure was 9.62 min. Next, `CCSCCSP(=S)(OC)OC`: 10.2 min.

`CNC(=O)Oc1ccc(N(C)C)c(C)c1`: the LC retention time was 5.15 min. Consider `NNCCc1ccccc1`, for which the LC retention time was 3.71 min. As to `CN(CC=CC#CC(C)(C)C)Cc1cccc2ccccc12`, the LC retention time was determined as 11 min.

For the molecule `O=C(O)c1ccc2n[nH]nc2c1`, the LC retention time came to 3.81 min. Turning to `c1ccc2c(c1)Sc1ccccc1N2CC1CN2CCC1CC2` (stereo unspecified), the LC retention time was 8.29 min. With `CCCCNc1cc(C(=O)O)cc(S(N)(=O)=O)c1Oc1ccccc1`, the LC retention time amounted to 7.83 min. With `CC(CN1c2ccccc2Sc2ccccc21)N(C)C` (stereo unspecified), the LC retention time turned out to be 7.53 min.

As to `CCOC(=O)CSc1nc(C(C)(C)C)nn1C(=O)N(C)C`, the LC retention time came to 6.38 min. `O=C(C1CCCCC1)N1CC(=O)N2CCc3ccccc3C2C1` (stereo unspecified): the LC retention time came to 9.32 min.

For `CCOC(=O)C(SP(=S)(OC)OC)c1ccccc1` (stereo unspecified), the LC retention time was 10.7 min.

On to `Cc1cccc(C)c1OCC(=O)NC(Cc1ccccc1)C(O)CC(Cc1ccccc1)NC(=O)C(C(C)C)N1CCCNC1=O` (stereo unspecified), for which the LC retention time was 11.8 min. As to `CC(C)NCC(O)c1ccc(NS(C)(=O)=O)cc1` (stereo unspecified), the LC retention time turned out to be 2.96 min. For the molecule `Cc1ncc([N+](=O)[O-])n1CCCO`, the LC retention time was determined as 4.21 min. Take `C#CC1(O)CCC2C3CCC4=CC(=O)CCC4C3CCC21C` (stereo unspecified): the LC retention time was 9.15 min. As for `C#CC[N+](C)([O-])C(C)Cc1ccccc1` (stereo unspecified), the LC retention time is 5.33 min. Next, `CC(O)C1C(=O)N2C(C(=O)O)=C(SC3CNC(C(=O)N(C)C)C3)C(C)C12` (stereo unspecified): 10.6 min. For the molecule `CCOP(=S)(OCC)OP(=S)(OCC)OCC`, the LC retention time stood at 10.8 min.

`CCCCNC(=O)n1c(NC(=O)OC)nc2ccccc21`: the LC retention time turned out to be 5.46 min. With `CC1C2Cc3ccc(O)cc3C1(C)CCN2CCc1ccccc1` (stereo unspecified) the figure was 6.08 min; with `O=C(O)CCCO`, 1.95 min.
